Measurements published in the supplement of paper PMC11061612.

Tests used:
Assay in all cases: combination Emax (second highest fraction inhibited in the dose matrix, 72 h); higher = more inhibition; extreme values may be limits of the assay
[1] = tested on: NB13 (Neuroblastoma)
How it was run: (§1)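 Cell lines in DMEM/F12 or RPMI with 10% FBS were plated in 1536-well plates, held 24 hours at 37°C, 5% CO2, then given two-drug dose matrices for 72 hours (DMSO typically 0.2%). Viability was read by CellTiter-Glo 2.0 luminescence and scaled as inhibition from 0 (vehicle wells) to 1 (blank wells). Combination Emax is the second-highest inhibition in the matrix; Bliss excess is observed combination effect minus expected EA + EB − EA·EB, EA and EB being single-agent effects.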

[2] = tested on: CGTH-W-1 (Thyroid Gland Carcinoma)
How it was run: as §1

[3] = tested on: MDA-MB-436 (Breast Carcinoma)
How it was run: as §1

[4] = tested on: PEO1 (Ovarian Carcinoma)
How it was run: as §1

[5] = tested on: HCC1428 (Breast Carcinoma)
How it was run: as §1

[6] = tested on: A101D (Melanoma)
How it was run: as §1

[7] = tested on: JHU-022 (Oral Cavity Carcinoma)
How it was run: as §1

[8] = tested on: EB2 (Burkitt's Lymphoma)
How it was run: as §1

[9] = tested on: COLO-792 (Melanoma)
How it was run: as §1

[10] = tested on: OACp4C (Esophageal Adenocarcinoma)
How it was run: as §1

[11] = tested on: NCI-H716 (Colorectal Carcinoma)
How it was run: as §1

[12] = tested on: Jurkat (T-Lymphoblastic Leukemia)
How it was run: as §1

[13] = tested on: JIMT-1 (Breast Carcinoma)
How it was run: as §1

[14] = tested on: NCI-H2228 (Lung Adenocarcinoma)
How it was run: as §1

[15] = tested on: EW-7 (Ewing's Sarcoma)
How it was run: as §1

[16] = tested on: UACC-812 (Breast Carcinoma)
How it was run: as §1

[17] = tested on: WM1552C (Melanoma)
How it was run: as §1

[18] = tested on: KYSE-140 (Esophageal Squamous Cell Carcinoma)
How it was run: as §1

[19] = tested on: GA-10 (Burkitt's Lymphoma)
How it was run: as §1

[20] = tested on: KP-N-YN (Neuroblastoma)
How it was run: as §1

## CC1(C)CCC(CN2CCN(c3ccc(C(=O)NS(=O)(=O)c4ccc(NCC5CCOCC5)c([N+](=O)[O-])c4)c(Oc4cnc5[nH]ccc5c4)c3)CC2)=C(c2ccc(Cl)cc2)C1 [Venetoclax] + C1CN(CCC1(C(=O)N[C@@H](CCO)C2=CC=C(C=C2)Cl)N)C3=NC=NC4=C3C=CN4 [Capivasertib] (first compound max 1 µM, 7x7, partner max 3 µM)
[1]
  combination Emax: 0.465
[2]
  combination Emax: 0.215
[3]
  combination Emax: 0.163
[4]
  combination Emax: 0.19
[5]
  combination Emax: 0.119
[6]
  combination Emax: 0.283
[7]
  combination Emax: 0.359
[8]
  combination Emax: 0.795
[9]
  combination Emax: 0.381
[10]
  combination Emax: 0.634
[11]
  combination Emax: 0.287
[12]
  combination Emax: 0.639
[13]
  combination Emax: 0.188
[14]
  combination Emax: 0.405
[15]
  combination Emax: 0.962
[16]
  combination Emax: 0.238
[17]
  combination Emax: 0.469
[18]
  combination Emax: 0.669
[19]
  combination Emax: 0.584
[20]
  combination Emax: 0.573

## CC1(C)CCC(CN2CCN(c3ccc(C(=O)NS(=O)(=O)c4ccc(NCC5CCOCC5)c([N+](=O)[O-])c4)c(Oc4cnc5[nH]ccc5c4)c3)CC2)=C(c2ccc(Cl)cc2)C1 [Venetoclax] + C=CCn1c(=O)c2cnc(Nc3ccc(N4CCN(C)CC4)cc3)nc2n1-c1cccc(C(C)(C)O)n1 [AZD1775] (first compound max 1 µM, partner max 1 µM)
[1]
  combination Emax: 0.928
[2]
  combination Emax: 0.377
[3]
  combination Emax: 0.231
[4]
  combination Emax: 0.337
[5]
  combination Emax: 0.22
[6]
  combination Emax: 0.736
[7]
  combination Emax: 0.388
[8]
  combination Emax: 0.932
[9]
  combination Emax: 0.399
[10]
  combination Emax: 0.897
[11]
  combination Emax: 0.377
[12]
  combination Emax: 0.907
[13]
  combination Emax: 0.573
[14]
  combination Emax: 0.494
[15]
  combination Emax: 0.974
[16]
  combination Emax: 0.0382
[17]
  combination Emax: 0.785
[18]
  combination Emax: 0.814
[19]
  combination Emax: 1
[20]
  combination Emax: 0.981

## CC1(C)CCC(CN2CCN(c3ccc(C(=O)NS(=O)(=O)c4ccc(NCC5CCOCC5)c([N+](=O)[O-])c4)c(Oc4cnc5[nH]ccc5c4)c3)CC2)=C(c2ccc(Cl)cc2)C1 [Venetoclax] + CCN(CCO)CCCOc1ccc2c(Nc3cc(CC(=O)Nc4cccc(F)c4)[nH]n3)ncnc2c1 [AZD2811] (first compound max 1 µM, 7x7, partner max 1 µM)
[1]
  combination Emax: 0.548
[2]
  combination Emax: 0.272
[3]
  combination Emax: 0.127
[4]
  combination Emax: 0.252
[5]
  combination Emax: 0.451
[6]
  combination Emax: 0.477
[7]
  combination Emax: 0.292
[8]
  combination Emax: 0.677
[9]
  combination Emax: 0.446
[10]
  combination Emax: 0.665
[11]
  combination Emax: 0.198
[12]
  combination Emax: 0.2
[13]
  combination Emax: 0.284
[14]
  combination Emax: 0.253
[15]
  combination Emax: 0.887
[16]
  combination Emax: 0.186
[17]
  combination Emax: 0.464
[18]
  combination Emax: 0.367
[19]
  combination Emax: 0.598
[20]
  combination Emax: 0.913

## CC1(C)CCC(CN2CCN(c3ccc(C(=O)NS(=O)(=O)c4ccc(NCC5CCOCC5)c([N+](=O)[O-])c4)c(Oc4cnc5[nH]ccc5c4)c3)CC2)=C(c2ccc(Cl)cc2)C1 [Venetoclax] + CN(C)CCCOc1ccc(-c2ccc3ncc4c(c3c2)n(C2CCOCC2)c(=O)n4C)cn1 [AZD0156] (first compound max 1 µM, 7x7, partner max 1 µM)
[1]
  combination Emax: 0.468
[2]
  combination Emax: 0.17
[3]
  combination Emax: 0.168
[4]
  combination Emax: 0.134
[5]
  combination Emax: 0.161
[6]
  combination Emax: 0.365
[7]
  combination Emax: 0.167
[8]
  combination Emax: 0.736
[9]
  combination Emax: 0.245
[10]
  combination Emax: 0.224
[11]
  combination Emax: 0.0954
[12]
  combination Emax: 0.161
[13]
  combination Emax: 0.167
[14]
  combination Emax: 0.306
[15]
  combination Emax: 0.944
[16]
  combination Emax: 0.146
[17]
  combination Emax: 0.562
[18]
  combination Emax: 0.289
[19]
  combination Emax: 0.278
[20]
  combination Emax: 0.528

## CC1(C)CCC(CN2CCN(c3ccc(C(=O)NS(=O)(=O)c4ccc(NCC5CCOCC5)c([N+](=O)[O-])c4)c(Oc4cnc5[nH]ccc5c4)c3)CC2)=C(c2ccc(Cl)cc2)C1 [Venetoclax] + COc1cc(Nc2ncc3c(n2)-c2ccc(Cl)cc2C(c2c(F)cccc2OC)=NC3)ccc1C(=O)O [Alisertib] (first compound max 1 µM, 7x7, partner max 10 µM)
[1]
  combination Emax: 0.932
[2]
  combination Emax: 0.598
[3]
  combination Emax: 0.246
[4]
  combination Emax: 0.276
[5]
  combination Emax: 0.339
[6]
  combination Emax: 0.632
[7]
  combination Emax: 0.382
[8]
  combination Emax: 0.803
[9]
  combination Emax: 0.405
[10]
  combination Emax: 0.72
[11]
  combination Emax: 0.82
[12]
  combination Emax: 0.741
[13]
  combination Emax: 0.268
[14]
  combination Emax: 0.396
[15]
  combination Emax: 0.932
[16]
  combination Emax: 0.224
[17]
  combination Emax: 0.508
[18]
  combination Emax: 0.423
[19]
  combination Emax: 0.995
[20]
  combination Emax: 0.827

## CC1(C)CCC(CN2CCN(c3ccc(C(=O)NS(=O)(=O)c4ccc(NCC5CCOCC5)c([N+](=O)[O-])c4)c(Oc4cnc5[nH]ccc5c4)c3)CC2)=C(c2ccc(Cl)cc2)C1 [Venetoclax] + C[C@@H]1COCCN1C2=NC(=NC(=C2)C3(CC3)[S@](=N)(=O)C)C4=C5C=CNC5=NC=C4 [AZD6738] (first compound max 1 µM, 7x7, partner max 10 µM)
[1]
  combination Emax: 0.942
[2]
  combination Emax: 0.366
[3]
  combination Emax: 0.36
[4]
  combination Emax: 0.48
[5]
  combination Emax: 0.397
[6]
  combination Emax: 0.91
[7]
  combination Emax: 0.593
[8]
  combination Emax: 0.844
[9]
  combination Emax: 0.316
[10]
  combination Emax: 0.711
[11]
  combination Emax: 0.436
[12]
  combination Emax: 0.921
[13]
  combination Emax: 0.722
[14]
  combination Emax: 0.476
[15]
  combination Emax: 0.959
[16]
  combination Emax: 0.29
[17]
  combination Emax: 0.617
[18]
  combination Emax: 0.863
[19]
  combination Emax: 0.976
[20]
  combination Emax: 0.999

## CC1(C)CCC(CN2CCN(c3ccc(C(=O)NS(=O)(=O)c4ccc(NCC5CCOCC5)c([N+](=O)[O-])c4)c(Oc4cnc5[nH]ccc5c4)c3)CC2)=C(c2ccc(Cl)cc2)C1 [Venetoclax] + C[C@@H](Nc1cc(F)cc(F)c1)c1cc(C(=O)N(C)C)cc2c(=O)cc(N3CCOCC3)oc12 [AZD8186] (first compound max 1 µM, 7x7, partner max 3 µM)
[1]
  combination Emax: 0.253
[2]
  combination Emax: 0.116
[3]
  combination Emax: 0.288
[4]
  combination Emax: 0.0947
[5]
  combination Emax: 0.147
[6]
  combination Emax: 0.387
[7]
  combination Emax: 0.314
[8]
  combination Emax: 0.746
[9]
  combination Emax: 0.328
[10]
  combination Emax: 0.31
[11]
  combination Emax: 0.225
[12]
  combination Emax: 0.271
[13]
  combination Emax: 0.087
[14]
  combination Emax: 0.293
[15]
  combination Emax: 0.95
[16]
  combination Emax: 0.0679
[17]
  combination Emax: 0.365
[18]
  combination Emax: 0.222
[19]
  combination Emax: 0.617
[20]
  combination Emax: 0.569

## CC1(C)CCC(CN2CCN(c3ccc(C(=O)NS(=O)(=O)c4ccc(NCC5CCOCC5)c([N+](=O)[O-])c4)c(Oc4cnc5[nH]ccc5c4)c3)CC2)=C(c2ccc(Cl)cc2)C1 [Venetoclax] + Cc1cc2ncnn2cc1Nc1ncc2c(n1)n(C1CCOCC1)c(=O)n2C [AZD7648] (first compound max 1 µM, 7x7, partner max 10 µM)
[1]
  combination Emax: 0.368
[2]
  combination Emax: 0.259
[3]
  combination Emax: 0.22
[4]
  combination Emax: 0.163
[5]
  combination Emax: 0.139
[6]
  combination Emax: 0.451
[7]
  combination Emax: 0.221
[8]
  combination Emax: 0.756
[9]
  combination Emax: 0.411
[10]
  combination Emax: 0.338
[11]
  combination Emax: 0.203
[12]
  combination Emax: 0.303
[13]
  combination Emax: 0.242
[14]
  combination Emax: 0.4
[15]
  combination Emax: 0.95
[16]
  combination Emax: 0.22
[17]
  combination Emax: 0.444
[18]
  combination Emax: 0.398
[19]
  combination Emax: 0.698
[20]
  combination Emax: 0.542

## CC1(C)CCC(CN2CCN(c3ccc(C(=O)NS(=O)(=O)c4ccc(NCC5CCOCC5)c([N+](=O)[O-])c4)c(Oc4cnc5[nH]ccc5c4)c3)CC2)=C(c2ccc(Cl)cc2)C1 [Venetoclax] + Cn1cnc2c(F)c(Nc3ccc(Br)cc3Cl)c(C(=O)NOCCO)cc21 [Selumetinib] (first compound max 1 µM, 7x7, partner max 3 µM)
[1]
  combination Emax: 0.183
[2]
  combination Emax: 0.124
[3]
  combination Emax: 0.111
[4]
  combination Emax: 0.19
[5]
  combination Emax: 0.132
[6]
  combination Emax: 0.568
[7]
  combination Emax: 0.42
[8]
  combination Emax: 0.755
[9]
  combination Emax: 0.505
[10]
  combination Emax: 0.488
[11]
  combination Emax: 0.366
[12]
  combination Emax: 0.277
[13]
  combination Emax: 0.14
[14]
  combination Emax: 0.185
[15]
  combination Emax: 0.887
[16]
  combination Emax: 0.0864
[17]
  combination Emax: 0.488
[18]
  combination Emax: 0.233
[19]
  combination Emax: 0.207
[20]
  combination Emax: 0.632
